Laboratory results as given in patent publication US20250281424A1 (New York Blood Center, Inc, priority 2020, published 2025).

Biological target: T1, human PF4 (Homo sapiens, UniProt P02776)
T1 construct: PF4 is a 70 amino acid, lysine-rich 7.8 kDa platelet-specific protein; made in house; host or cells: Escherichia coli BL21DE3 pLysS (pT7-7) and/or Drosophila S2 cells
T1 sequence (P02776 32-101): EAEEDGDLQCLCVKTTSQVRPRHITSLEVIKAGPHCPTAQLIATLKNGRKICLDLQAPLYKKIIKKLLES
Assay: Inhibition of PF4 tetramer formation (BS3 cross-linking, SDS-PAGE)
Assay type: biochemical
Conditions: for inhibition at 5 µM: 5 μM inhibitor; for inhibition at 5 µM / inhibition at 10 µM / inhibition at 1 µM / inhibition at 3 µM: read-out: % inhibition of PF4 tetramer formation at single concentration of inhibitor; for inhibition at 10 µM: 10 μM inhibitor (column A); for IC50: read-out: IC50 of PF4 tetramer formation inhibition; for inhibition at 1 µM: 1 μM inhibitor; for inhibition at 3 µM: 3 μM inhibitor (column A)
Procedure, shortened: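 Monomer, dimer, trimer and tetramer fractions were quantified by densitometry after reducing 12% SDS-PAGE of BS3-cross-linked (0.2 mM, 30 min, room temperature) PF4. Before cross-linking, 10 μg/ml E. coli-expressed human WT PF4 in PBS was exposed to compound for 15 min at 37° C or 60 min at room temperature; controls lacked compound.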

SMILES | inhibition at 5 µM [%] | inhibition at 10 µM [%] | IC50 [µM] | inhibition at 1 µM [%] | inhibition at 3 µM [%]
CC(C)(C)OC(=O)N1CCC[C@@H]1C(=O)C1C(=O)c2ccc(S(=O)(=O)c3ccc4c(c3)C(=O)C(C(=O)[C@H]3CCCN3C(=O)OC(C)(C)C)C4=O)cc2C1=O (stereo partly drawn) [Example 162, tert-butyl (2R)-2-[5-({2-[(2R)-1-[(tert-butoxy)carbonyl]pyrrolidine-2-carbonyl]-1,3-dioxo-2,3-dihydro-1H-inden-5-yl}sulfonyl)-1,3-dioxo-2,3-dihydro-1H-indene-2-carbonyl]pyrrolidine-1-carboxylate] | 86 | 94 | 2.6 |  | 
CC(C)(C)OC(=O)N1C[C@H](F)C[C@H]1C(=O)C1C(=O)c2ccc(C(=O)c3ccc4c(c3)C(=O)C(C(=O)[C@@H]3C[C@@H](F)CN3C(=O)OC(C)(C)C)C4=O)cc2C1=O (stereo partly drawn) [Example 113, tert-butyl (2S,4R)-2-(5-{2-[(2S,4R)-1-[(tert-butoxy)carbonyl]-4-fluoropyrrolidine-2-carbonyl]-1,3-dioxo-2,3-dihydro-1H-indene-5-carbonyl}-1,3-dioxo-2,3-dihydro-1H-indene-2-carbonyl)-4-fluoropyrrolidine-1-carboxylate] | 68 | 86 | 5.4 |  | 
CN(CC(=O)C1C(=O)c2ccc(Oc3ccc4c(c3)C(=O)C(C(=O)CN(C)C(=O)OC(C)(C)C)C4=O)cc2C1=O)C(=O)OC(C)(C)C (stereo not drawn) [Example 263, tert-butyl N-[2-(5-{[2-(2-{[(tert-butoxy)carbonyl](methyl)amino}acetyl)-1,3-dioxo-2,3-dihydro-1H-inden-5-yl]oxy}-1,3-dioxo-2,3-dihydro-1H-inden-2-yl)-2-oxoethyl]-N-methylcarbamate] |  |  | 2.07 | 72 | 69
CC(C)(C)OC(=O)N1CC2(CC(C(=O)C3C(=O)c4ccc(C(=O)c5ccc6c(c5)C(=O)C(C(=O)C5CC7(C5)CN(C(=O)OC(C)(C)C)C7)C6=O)cc4C3=O)C2)C1 (stereo not drawn) [Example 131, tert-butyl 6-[5-(2-{2-[(tert-butoxy)carbonyl]-2-azaspiro[3.3]heptane-6-carbonyl}-1,3-dioxo-2,3-dihydro-1H-indene-5-carbonyl)-1,3-dioxo-2,3-dihydro-1H-indene-2-carbonyl]-2-azaspiro[3.3]heptane-2-carboxylate] | 83 | 88 | 4.1 |  | 
CC(C)(C)OC(=O)N1CCOC(C(=O)C2C(=O)c3ccc(C(=O)c4ccc5c(c4)C(=O)C(C(=O)C4CN(C(=O)OC(C)(C)C)CCO4)C5=O)cc3C2=O)C1 (stereo not drawn) [Example 240, tert-butyl 2-[5-(2-{4-[(tert-butoxy)carbonyl]morpholine-2-carbonyl}-1,3-dioxo-2,3-dihydro-1H-indene-5-carbonyl)-1,3-dioxo-2,3-dihydro-1H-indene-2-carbonyl]morpholine-4-carboxylate] |  |  |  | 14 | 32
N[C@@H](C(=O)C1C(=O)c2ccc(S(=O)(=O)c3ccc4c(c3)C(=O)C(C(=O)[C@H](N)c3ccccc3)C4=O)cc2C1=O)c1ccccc1 (stereo partly drawn) [Example 172, 2-[(2R)-2-amino-2-phenylacetyl]-5-({2-[(2R)-2-amino-2-phenylacetyl]-1,3-dioxo-2,3-dihydro-1H-inden-5-yl}sulfonyl)-2,3-dihydro-1H-indene-1,3-dione] | 81 | 93 | 1.6 |  | 
CC(C)(C)OC(=O)N[C@@H](Cc1ccccc1)C(=O)C1C(=O)c2ccc(C(=O)c3ccc4c(c3)C(=O)C(C(=O)[C@H](Cc3ccccc3)NC(=O)OC(C)(C)C)C4=O)cc2C1=O (stereo partly drawn) [Example 157, tert-butyl N-[(2S)-1-(5-{2-[(2S)-2-{[(tert-butoxy)carbonyl]amino}-3-phenylpropanoyl]-1,3-dioxo-2,3-dihydro-1H-indene-5-carbonyl}-1,3-dioxo-2,3-dihydro-1H-inden-2-yl)-1-oxo-3-phenylpropan-2-yl]carbamate] | 100 | 100 | 1.2 |  | 
O=C(NC1CCCC1)C1C(=O)c2ccc(C(c3ccc4c(c3)C(=O)C(C(=O)NC3CCCC3)C4=O)(C(F)(F)F)C(F)(F)F)cc2C1=O (stereo not drawn) [Example 109, N-cyclopentyl-5-{2-[2-(cyclopentylcarbamoyl)-1,3-dioxo-2,3-dihydro-1H-inden-5-yl]-1,1,1,3,3,3-hexafluoropropan-2-yl}-1,3-dioxo-2,3-dihydro-1H-indene-2-carboxamide] | 68 | 59 |  |  | 
O=C(c1ccc2c(c1)C(=O)C(C(=O)CN1CCCC1=O)C2=O)c1ccc2c(c1)C(=O)C(C(=O)CN1CCCC1=O)C2=O (stereo not drawn) [Example 183, 5-{1,3-dioxo-2-[2-(2-oxopyrrolidin-1-yl)acetyl]-2,3-dihydro-1H-indene-5-carbonyl}-2-[2-(2-oxopyrrolidin-1-yl)acetyl]-2,3-dihydro-1H-indene-1,3-dione] | 87 | 100 | 4.3 |  | 
COC(=O)N1CCC[C@H]1C(=O)C1C(=O)c2ccc(C(=O)c3ccc4c(c3)C(=O)C(C(=O)[C@@H]3CCCN3C(=O)OC)C4=O)cc2C1=O (stereo partly drawn) [Example 114, methyl (2S)-2-(5-{2-[(2S)-1-(methoxycarbonyl)pyrrolidine-2-carbonyl]-1,3-dioxo-2,3-dihydro-1H-indene-5-carbonyl}-1,3-dioxo-2,3-dihydro-1H-indene-2-carbonyl)pyrrolidine-1-carboxylate] | 76 | 91 | 2.5 |  | 
CC(=O)OC[C@H]1O[C@@H](OC(C)=O)[C@H](NC(=O)C2C(=O)c3ccc(S(=O)(=O)c4ccc5c(c4)C(=O)C(C(=O)N[C@H]4[C@H](OC(C)=O)O[C@H](COC(C)=O)[C@@H](OC(C)=O)[C@@H]4OC(C)=O)C5=O)cc3C2=O)[C@@H](OC(C)=O)[C@@H]1OC(C)=O (stereo partly drawn) [Example 400, [(2R,3S,4R,5R,6S)-3,4,6-tris(acetyloxy)-5-{5-[(1,3-dioxo-2-{[(2S,3R,4R,5S,6R)-2,4,5-tris(acetyloxy)-6-[(acetyloxy)methyl]oxan-3-yl]carbamoyl}-2,3-dihydro-1H-inden-5-yl)sulfonyl]-1,3-dioxo-2,3-dihydro-1H-indene-2-amido}oxan-2-yl]methyl acetate] |  |  |  | 17 | 21
O=C(c1ccc2c(c1)C(=O)C(C(=O)NCCCc1ccccc1)C2=O)c1ccc2c(c1)C(=O)C(C(=O)NCCCc1ccccc1)C2=O (stereo not drawn) [Example 24, 5,5′-carbonylbis(1,3-dioxo-indan-2-carboxylic acid (3-(phenyl)propyl)-amide)] | 83 | 89 | 5.11 |  | 
CSCC[C@H](NC(=O)OC(C)(C)C)C(=O)C1C(=O)c2ccc(Oc3ccc4c(c3)C(=O)C(C(=O)[C@H](CCSC)NC(=O)OC(C)(C)C)C4=O)cc2C1=O (stereo partly drawn) [Example 270, tert-butyl N-[(2S)-1-[5-({2-[(2S)-2-{[(tert-butoxy)carbonyl]amino}-4-(methylsulfanyl)butanoyl]-1,3-dioxo-2,3-dihydro-1H-inden-5-yl}oxy)-1,3-dioxo-2,3-dihydro-1H-inden-2-yl]-4-(methylsulfanyl)-1-oxobutan-2-yl]carbamate] |  |  |  | 10 | 24
O=C(NCc1ccco1)C1C(=O)c2ccc(S(=O)(=O)c3ccc4c(c3)C(=O)C(C(=O)NCc3ccco3)C4=O)cc2C1=O (stereo not drawn) [Example 104, N-[(furan-2-yl)methyl]-5-[(2-{[(furan-2-yl)methyl]carbamoyl}-1,3-dioxo-2,3-dihydro-1H-inden-5-yl)sulfonyl]-1,3-dioxo-2,3-dihydro-1H-indene-2-carboxamide] |  |  | 1.4 |  | 
